The record followed here is US20200207759A1, “NEW PROPANAMINE DERIVATIVES FOR TREATING PAIN AND PAIN RELATED CONDITIONS” (ESTEVE PHARMACEUTICALS, S.A., priority 2017, published 2020).

For assay [1], the target named is Human norepinephrine transporter (NET) (Homo sapiens, UniProt P23975). Briefly: Binding assay to human norepinephrine transporter (NET), [3H]-Nisoxetin. The following applies: human NET enriched membranes, 5 nM [3H]-Nisoxetin; read-out: Ki (nM) NET Hum. The essentials:
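NET-enriched membranes (5 μg) incubated with 5 nM [3H]-nisoxetin in 50 mM Tris-HCl, 120 mM NaCl, 5 mM KCl, pH 7.4, for 60 min at 4 °C. Separation by filtration on PEI-soaked GF/C, then scintillation counting.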

Assay [2] addresses Human α2δ-1 subunit of Cav2.2 calcium channel (Homo sapiens, UniProt P54289). Briefly: Binding assay to human α2δ-1 subunit of Cav2.2 calcium channel, [3H]-Gabapentin. The settings on record: human α2δ-1 enriched membranes, 15 nM [3H]-Gabapentin; read-out: Ki (nM) alpha2delta Hum. The method, boiled down: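 Human α2δ-1-enriched membranes incubated with 15 nM [3H]-gabapentin in 10 mM Hepes-KOH pH 7.4, 60 min at 27 °C; nonspecific binding defined with 10 μM pregabalin. Bound ligand separated by filtration on PEI-presoaked GF/C filters, washed with ice-cold 50 mM Tris-HCl pH 7.4, counted by scintillation.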

Chain of Human norepinephrine transporter (NET) (P23975 whole entry): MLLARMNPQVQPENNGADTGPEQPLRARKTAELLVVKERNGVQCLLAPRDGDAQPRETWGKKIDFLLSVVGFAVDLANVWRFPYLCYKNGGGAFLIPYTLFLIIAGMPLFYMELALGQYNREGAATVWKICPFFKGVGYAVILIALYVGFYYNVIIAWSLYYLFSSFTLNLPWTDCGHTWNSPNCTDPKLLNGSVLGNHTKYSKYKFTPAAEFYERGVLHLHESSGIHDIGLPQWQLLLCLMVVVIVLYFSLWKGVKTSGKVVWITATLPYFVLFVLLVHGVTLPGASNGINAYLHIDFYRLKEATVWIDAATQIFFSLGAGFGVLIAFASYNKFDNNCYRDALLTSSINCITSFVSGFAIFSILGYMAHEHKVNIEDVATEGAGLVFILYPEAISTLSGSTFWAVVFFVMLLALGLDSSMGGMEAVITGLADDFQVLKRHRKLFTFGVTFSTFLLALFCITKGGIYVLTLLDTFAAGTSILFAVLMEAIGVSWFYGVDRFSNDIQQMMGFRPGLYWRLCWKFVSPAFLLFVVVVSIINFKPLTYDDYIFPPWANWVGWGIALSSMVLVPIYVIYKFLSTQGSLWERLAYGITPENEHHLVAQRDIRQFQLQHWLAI
Chain of Human α2δ-1 subunit of Cav2.2 calcium channel (P54289 25-1103): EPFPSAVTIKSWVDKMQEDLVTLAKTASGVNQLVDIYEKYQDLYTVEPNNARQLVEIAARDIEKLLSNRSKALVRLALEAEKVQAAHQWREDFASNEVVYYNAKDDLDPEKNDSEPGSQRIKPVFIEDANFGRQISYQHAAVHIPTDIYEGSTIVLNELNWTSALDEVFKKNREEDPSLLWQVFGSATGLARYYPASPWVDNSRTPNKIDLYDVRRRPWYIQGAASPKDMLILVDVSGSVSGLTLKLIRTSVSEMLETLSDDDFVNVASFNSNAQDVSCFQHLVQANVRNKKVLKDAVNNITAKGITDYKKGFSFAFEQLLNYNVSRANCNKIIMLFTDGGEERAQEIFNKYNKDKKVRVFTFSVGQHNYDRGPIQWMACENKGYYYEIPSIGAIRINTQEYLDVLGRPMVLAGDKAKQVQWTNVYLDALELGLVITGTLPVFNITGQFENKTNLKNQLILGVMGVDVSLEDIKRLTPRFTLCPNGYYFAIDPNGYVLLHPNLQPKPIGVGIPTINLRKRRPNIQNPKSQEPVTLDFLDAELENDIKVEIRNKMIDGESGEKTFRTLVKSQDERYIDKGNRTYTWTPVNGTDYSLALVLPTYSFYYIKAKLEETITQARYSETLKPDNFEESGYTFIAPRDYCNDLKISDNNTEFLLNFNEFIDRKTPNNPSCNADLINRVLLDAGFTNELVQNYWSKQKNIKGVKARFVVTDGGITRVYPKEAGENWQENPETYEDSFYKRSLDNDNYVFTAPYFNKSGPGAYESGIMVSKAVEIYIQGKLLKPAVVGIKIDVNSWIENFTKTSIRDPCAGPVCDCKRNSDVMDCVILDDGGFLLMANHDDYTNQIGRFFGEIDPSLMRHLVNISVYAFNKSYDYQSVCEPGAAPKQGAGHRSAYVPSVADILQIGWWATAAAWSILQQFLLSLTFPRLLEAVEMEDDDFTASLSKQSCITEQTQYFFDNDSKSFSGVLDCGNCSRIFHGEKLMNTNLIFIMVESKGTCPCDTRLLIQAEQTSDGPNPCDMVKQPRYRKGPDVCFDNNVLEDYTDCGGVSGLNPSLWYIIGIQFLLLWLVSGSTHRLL

In the case of `CNCC[C@@H](c1ccc(F)s1)N1CCc2ncccc21` [Example 19, (S)-3-(2,3-dihydro-1H-pyrrolo[3,2-b]pyridin-1-yl)-3-(5-fluorothiophen-2-yl)-N-methylpropan-1-amine], the Ki in assay [1] is 500 to 1000 nM; in assay [2], 100 to 500 nM.

As for `CNCC[C@H](c1ccsc1)N1CCc2nc(C)ccc21` [Example 62, (R)—N-methyl-3-(5-methyl-2,3-dihydro-1H-pyrrolo[3,2-b]pyridin-1-yl)-3-(thiophen-3-yl)propan-1-amine], the values for the Ki in assay [1] and in assay [2] were above 1000 nM and 500 to 3000 nM, respectively.

As to `CNCC[C@H](c1cscc1C)N1CCc2ncccc21` [Example 51, (R)-3-(2,3-Dihydro-1H-pyrrolo[3,2-b]pyridin-1-yl)-N-methyl-3-(4-methylthiophen-3-yl)propan-1-amine], the Ki in assay [1] is above 1000 nM; in assay [2], at least 3000 nM.

Turning to `CNCC[C@@H](c1cscc1C)N1CCc2ncccc21` [Example 50, (S)-3-(2,3-Dihydro-1H-pyrrolo[3,2-b]pyridin-1-yl)-N-methyl-3-(4-methylthiophen-3-yl)propan-1-amine], the Ki in assay [1] is 100 to 500 nM; in assay [2], at least 3000 nM.

With `CNCC[C@H](c1cc(C)cs1)N1CCc2ncccc21` [Example 56, (R)-3-(2,3-Dihydro-1H-pyrrolo[3,2-b]pyridin-1-yl)-N-methyl-3-(4-methylthiophen-2-yl)propan-1-amine], the Ki is above 1000 nM in assay [1] and 500 to 3000 nM in assay [2].

Regarding `CNCCC(c1cccs1)N1CCCc2ccccc21` (stereo not drawn) [Example 4, 3-(3,4-Dihydroquinolin-1(2H)-yl)-N-methyl-3-(thiophen-2-yl)propan-1-amine], the Ki is 100 to 500 nM in assay [1] and at least 3000 nM in assay [2].

For `CNCCC(c1cccs1)N1CC(C)(C)c2ncccc21` (stereo not drawn) [Example 12, 3-(3,3-Dimethyl-2,3-dihydro-1H-pyrrolo[3,2-b]pyridin-1-yl)-N-methyl-3-(thiophen-2-yl)propan-1-amine], the Ki in assay [1] was in the range of 500 to 1000 nM; in assay [2] it was 100 to 500 nM.

As for `CNCC[C@H](c1ccsc1)N1CCc2ncc(F)cc21` [Example 28, (R)-3-(6-Fluoro-2,3-dihydro-1H-pyrrolo[3,2-b]pyridin-1-yl)-N-methyl-3-(thiophen-3-yl)propan-1-amine], the Ki in assay [1] was in the range of 500 to 1000 nM; in assay [2], 100 to 500 nM.

As to `CNCC[C@@H](c1cccs1)N1CC(C)(C)c2ncc(F)cc21` [Example 105, (S)-3-(6-Fluoro-3,3-dimethyl-2,3-dihydro-1H-pyrrolo[3,2-b]pyridin-1-yl)-N-methyl-3-(thiophen-2-yl)propan-1-amine], the Ki in assay [1] is above 1000 nM; in assay [2], 500 to 3000 nM.

With `CNCC[C@@H](c1ccsc1)N1CC(C)(C)c2ncc(C)cc21` [Example 61, (S)-N-methyl-3-(thiophen-3-yl)-3-(3,3,6-trimethyl-2,3-dihydro-1H-pyrrolo[3,2-b]pyridin-1-yl)propan-1-amine], the Ki in assay [1] is above 1000 nM; in assay [2], 500 to 3000 nM.

Turning to `CNCCC(c1cccs1)N1CC(C)(C)c2ncc(C)cc21` (racemic) [Example 81, N-methyl-3-(thiophen-2-yl)-3-(3,3,6-trimethyl-2,3-dihydro-1H-pyrrolo[3,2-b]pyridin-1-yl)propan-1-amine], the Ki is above 1000 nM in assay [1] and below 100 nM in assay [2].

Turning to `CNCCC(c1ccsc1)N1CC(C)(C)c2ncccc21` (stereo not drawn) [Example 13, 3-(3,3-Dimethyl-2,3-dihydro-1H-pyrrolo[3,2-b]pyridin-1-yl)-N-methyl-3-(thiophen-3-yl)propan-1-amine], the Ki in assay [1] is 500 to 1000 nM; in assay [2] it was 500 to 3000 nM.

For the molecule `CNCCC(c1cccs1)N1CC(C)(C)c2nc(C(F)(F)F)ccc21` (stereo not drawn) [Example 75, 3-(3,3-Dimethyl-5-(trif1uoromethyl)-2,3-dihydro-1H-pyrrolo[3,2-b]pyridin-1-yl)-N-methyl-3-(thiophen-2-yl)propan-1-amine], the Ki is above 1000 nM in assay [1] and 100 to 500 nM in assay [2].

In the case of `CNCC[C@H](c1cccs1)N1CCc2ncc(F)cc21` [Example 26, (R)-3-(6-Fluoro-2,3-dihydro-1H-pyrrolo[3,2-b]pyridin-1-yl)-N-methyl-3-(thiophen-2-yl)propan-1-amine], the Ki in assay [1] was above 1000 nM; in assay [2], 100 to 500 nM.

Take `CNCCC(c1ccsc1)N1CC(C)(C)c2ncc(F)cc21` (stereo not drawn) [Example 65, 3-(6-Fluoro-3,3-dimethyl-2,3-dihydro-1H-pyrrolo[3,2-b]pyridin-1-yl)-N-methyl-3-(thiophen-3-yl)propan-1-amine]: the figures for the Ki in assay [1] and in assay [2] were above 1000 nM and below 100 nM, respectively.

As for `CNCCC(c1cccs1)N1CC(C)(C)c2ccc(C#N)cc21` (stereo not drawn) [Example 92, 3,3-Dimethyl-1-(3-(methylamino)-1-(thiophen-2-yl)propyl)indoline-6-carbonitrile], the Ki in assay [1] is above 1000 nM; in assay [2], 100 to 500 nM.

For `CNCC[C@@H](c1ccsc1)N1CC(C)(C)c2nc(C)c(F)cc21` [Example 89, (S)-3-(6-Fluoro-3,3,5-trimethyl-2,3-dihydro-1H-pyrrolo[3,2-b]pyridin-1-yl)-N-methyl-3-(thiophen-3-yl)propan-1-amine], the Ki in assay [1] and in assay [2] was 100 to 500 nM throughout.

Turning to `CNCC[C@@H](c1ccsc1)N1CCc2nc(C(C)C)ccc21` [Example 47, (S)-3-(5-Isopropyl-2,3-dihydro-1H-pyrrolo[3,2-b]pyridin-1-yl)-N-methyl-3-(thiophen-3-yl)propan-1-amine], the figures for the Ki in assay [1] and in assay [2] were above 1000 nM and 500 to 3000 nM, respectively.

For the molecule `CNCC[C@H](c1cccc(F)c1)N1CC(C)(C)c2ncccc21` [Example 85, (R)-3-(3,3-Dimethyl-2,3-dihydro-1H-pyrrolo[3,2-b]pyridin-1-yl)-3-(3-fluorophenyl)-N-methylpropan-1-amine], the Ki in assay [1] was above 1000 nM; in assay [2], at least 3000 nM.

`CNCCC(c1ccsc1)N1CCc2ncc(C)cc21` (stereo not drawn) [Example 14, N-methyl-3-(6-methyl-2,3-dihydro-1H-pyrrolo[3,2-b]pyridin-1-yl)-3-(thiophen-3-yl)propan-1-amine]: the Ki lay in the range of 500 to 1000 nM in assay [1] and 100 to 500 nM in assay [2].

Regarding `CNCCC(c1cccs1)N1CC(C)(C)c2ccccc21` (stereo not drawn) [Example 93, 3-(3,3-Dimethylindolin-1-yl)-N-methyl-3-(thiophen-2-yl)propan-1-amine], the Ki in assay [1] was below 100 nM; in assay [2], 500 to 3000 nM.

Consider `CCc1cnc2c(c1)N([C@H](CCNC)c1ccsc1)CC2` [Example 76, (R)-3-(6-Ethyl-2,3-dihydro-1H-pyrrolo[3,2-b]pyridin-1-yl)-N-methyl-3-(thiophen-3-yl)propan-1-amine], for which the Ki in assay [1] and in assay [2] was 100 to 500 nM each time.

As for `CNCCC(c1cccs1)N1CC(C)(C)c2nc(OC)ccc21` (stereo not drawn) [Example 99, 3-(5-Methoxy-3,3-dimethyl-2,3-dihydro-1H-pyrrolo[3,2-b]pyridin-1-yl)-N-methyl-3-(thiophen-2-yl)propan-1-amine], the Ki in assay [1] and in assay [2] was 100 to 500 nM in each case.

With `CNCC[C@H](c1ccsc1)N1CCc2nc(C(C)C)ccc21` [Example 46, (R)-3-(5-Isopropyl-2,3-dihydro-1H-pyrrolo[3,2-b]pyridin-1-yl)-N-methyl-3-(thiophen-3-yl)propan-1-amine], the Ki in assay [1] is above 1000 nM; in assay [2], 500 to 3000 nM.
